Source: patent US20170360882A1, “COMPOSITION FOR PREVENTING, IMPROVING OR TREATING PSORIASIS COMPRISING IMMUNOMODULATOR AND GLUCOSAMINE” (DONGGUK UNIVERSITY INDUSTRY-ACADEMY COOPERATION FOUNDATION, priority 2014, published 2017)

Key:
Type in all cases: in vivo, C57BL/6 mice
[1] = tested on: IMQ-induced psoriasis-like mouse model; assay: Skin lesion score (erythema+scaling+thickening) in IMQ-induced psoriasis-like mouse model; conditions: for severity of psoriasis-like skin lesions (cumulative score erythema+scaling+thickening): oral, 7 days
Procedure: More specifically, hair on the backs of C57BL/6 mice was shaved off using an electric razor and then treated with a depilatory (Niclean, Ildong, Korea). For all other groups except a normal group, 62.5 mg of IMQ cream was applied daily to the shaved back area for 14 days.
On the other hand, the normal group as a negative control group was treated only with a vehicle cream (petrolatum).
The degree of (1) erythema, (2) scaling and (3) thickening was scored as 0 (none), 1 (mild), 2 (moderate) and 3 (severe). A cumulative dermatitis score (erythema+scaling+thickening) indicates the severity of psoriasis in back skin (scale: 0-9).
The clinical skin scores were calculated by summing the scores obtained on the basis of symptoms of erythema, scaling and thickening.

IL-17A = assay: Cytokine production assay (ELISA), IL-17A in blood serum and skin of IMQ-induced psoriasis-like mice; conditions: blood serum samples and skin samples; glucosamine 300 mg/kg, cyclosporine A 10 and 20 mg/kg; co-administration vs each alone; alone vs control group (IMQ alone)
Procedure: (§1) To measure cytokine levels in blood serum, mouse blood serum was collected 24 hours after the final administration and stored at −70° C. until analysis. To measure cytokine levels in the skin tissues, the back skin of mice was removed and stored at −80° C. Thereafter, the skin tissues were homogenized using a Bullet Blender™ Blue (Next Advance, Averill Park, N.Y.) at 4° C. to obtain supernatants, and the supernatants were stored at −30° C. IL-17A, IL-22, IL-23, and TNF-α concentrations in the blood serum and the skin tissues of mice were measured using the Mouse IL-17A Quantikine ELISA Kit (R&D Systems, Minneapolis, Minn., USA), IL-22, IL-23 and TNF-α ELISA kits (eBioscience, San Diego, Calif., USA). Meanwhile, ELISA was performed according to the manufacturer's instructions.

IL-22 = assay: Cytokine production assay (ELISA), IL-22 in blood serum and skin of IMQ-induced psoriasis-like mice; conditions: blood serum samples and skin samples; glucosamine 300 mg/kg, cyclosporine A 10 and 20 mg/kg; co-administration vs each alone; alone vs control group (IMQ alone)
Procedure: as §1

IL-23 = assay: Cytokine production assay (ELISA), IL-23 in blood serum and skin of IMQ-induced psoriasis-like mice; conditions: blood serum samples and skin samples; glucosamine 300 mg/kg, cyclosporine A 10 and 20 mg/kg; co-administration vs each alone; alone vs control group (IMQ alone)
Procedure: as §1

TNF-α = assay: Cytokine production assay (ELISA), TNF-α in blood serum and skin of IMQ-induced psoriasis-like mice; conditions: blood serum samples and skin samples; glucosamine 300 mg/kg, cyclosporine A 10 and 20 mg/kg; co-administration vs each alone; alone vs control group (IMQ alone)
Procedure: as §1

CD4+ CD25+ Treg cells = assay: Flow cytometry of regulatory T (Treg) cells from spleens of IMQ-induced psoriasis-like mice; conditions: spleen cells; glucosamine 300 mg/kg, cyclosporine A 20 mg/kg; co-administration vs each alone; alone vs control group (IMQ alone)
Procedure: Single-cell suspensions prepared from spleens were stained with FITC-anti-CD4 (GK1.5) and PE-anti-CD25 (280406) (R&D Systems, Minneapolis, Minn., USA), and incubated in a PBS solution containing 2% FBS at 4° C. for 30 minutes under dark conditions. After incubation, the samples were washed twice and analyzed using CellQuest software (Becton Dickinson).

N[C@@H]1C(O)O[C@H](CO)[C@H](O)[C@@H]1O (stereo in doubt) [glucosamine]
clinical skin scores ([1]; glucosamine 300 mg/kg, cyclosporine A 10 and 20 mg/kg, oral once a day for a week, co-administration vs each alone, alone vs control group (IMQ alone)): no significant difference | severity of psoriasis-like skin lesions (cumulative score erythema+scaling+thickening) ([1]; high doses alone: glucosamine 400 mg/kg, cyclosporine A 40 mg/kg): reduced | severity of psoriasis-like skin lesions (cumulative score erythema+scaling+thickening) ([1]; low doses alone: glucosamine 100, 200 and 300 mg/kg, cyclosporine A 10 and 20 mg/kg): no significant effect | IL-17A level (IL-17A): no significant difference | IL-22 level (IL-22): no significant difference | IL-23 level (IL-23): no significant difference | level of TNF-α (TNF-α): no significant difference | number of CD4+ CD25+ Treg cells (CD4+ CD25+ Treg cells): no significant difference
